Counter-ions that a name gives are not always drawn.

Assay [1] concerns late components of human complement (C3-C9). Put plainly: Test Code 035 (C3-C9 inhibitor), lysis of EAC 142. As to conditions: in vitro; serial twofold dilution assay, higher well number indicates higher activity. It counts as biochemical. From the text:
(§1) An active inhibitor protects C2 from C1 and C4; (ii) Test Code 035 (C3-C9 inhibitor)--This test determines the ability of the late components of human complement (C3-C9) to lyse EAC 142 in the presence of appropriate dilutions of the test compound. An active inhibitor protects EAC 142 from lysis by human C3-C9; (iii) Test Code 036 (C-Shunt inhibitor)--In this test human erythrocytes rendered fragile are lysed in autologous serum via the shunt pathway activated by cobra venom factor in the presence of appropriate dilutions of the test compound. Inhibition of the shunt pathway results in failure of lysis; (iv) Cap 50 Test--Here, appropriate amounts of the test compound are added to a pool of guinea pig serum in vitro, after which the undiluted serum capillary tube assay of U.S. Pat. No. 3,876,376 is run. The concentration of compound inhibiting 50% is reported; and (v) Guinea Pig Intraperitoneal Test (GPIP)--Guinea pigs weighing about 300 g are dosed intraperitoneally (i.p.) with 200 mg/kg of the test compound dissolved in saline and adjusted to pH 7-8. […] Percent inhibition is calculated by comparison with simultaneous controls. […]

Another assay relates to shunt pathway. Put plainly: Test Code 036 (C-Shunt inhibitor), lysis of human erythrocytes in autologous serum activated by cobra venom factor. It counts as cell-based. As to conditions: in vitro; serial twofold dilution assay, higher well number indicates higher activity.
Source text: as §1

The target in the next assay is T1, activated human C1 (Homo sapiens, UniProt P09871).
T1 construct: fluid-phase human C2 as substrate in presence of C4
Put plainly: Test Code 026 (C1 inhibitor). As to conditions: in vitro; serial twofold dilution assay, higher well number indicates higher activity. Format: biochemical.
Source text: as §1

A further assay relates to complement activity. As to the kind of experiment: Guinea Pig Intraperitoneal Test (GPIP). It counts as in vivo. As to conditions: 200 mg/kg i.p.; for In vivo Activity (Guinea Pigs) % Inhibition Intraperitoneal, 30 minutes: serum complement activity 30 minutes after injection; for In vivo Activity (Guinea Pigs) % Inhibition Intraperitoneal, 60 minutes: serum complement activity 60 minutes after injection; for In vivo Activity (Guinea Pigs) % Inhibition Intraperitoneal, 120 minutes: serum complement activity 120 minutes after injection. From the text:
An active inhibitor protects C2 from C1 and C4; (ii) Test Code 035 (C3-C9 inhibitor)--This test determines the ability of the late components of human complement (C3-C9) to lyse EAC 142 in the presence of appropriate dilutions of the test compound. An active inhibitor protects EAC 142 from lysis by human C3-C9; (iii) Test Code 036 (C-Shunt inhibitor)--In this test human erythrocytes rendered fragile are lysed in autologous serum via the shunt pathway activated by cobra venom factor in the presence of appropriate dilutions of the test compound. Inhibition of the shunt pathway results in failure of lysis; (iv) Cap 50 Test--Here, appropriate amounts of the test compound are added to a pool of guinea pig serum in vitro, after which the undiluted serum capillary tube assay of U.S. Pat. No. 3,876,376 is run. The concentration of compound inhibiting 50% is reported; and (v) Guinea Pig Intraperitoneal Test (GPIP)--Guinea pigs weighing about 300 g are dosed intraperitoneally (i.p.) with 200 mg/kg of the test compound dissolved in saline and adjusted to pH 7-8. Approximately 0.4 ml blood samples, taken by orbital sinus puncture 30 minutes and one hour after injections, are collected directly into centrifuge tubes; 5 ml blood samples, taken by decapitation 2 hours after injection are collected directly into diSPo® beakers. The samples were allowed to clot, centrifuged, and the resultant sera were assayed for complement activity using the capillary complement assay. Percent inhibition is calculated by comparison with simultaneous controls. The results of the GPIP appear in Table I together with results of Test Code 026, 035, 036 and Cap 50.

T1 sequence (P09871 16-688): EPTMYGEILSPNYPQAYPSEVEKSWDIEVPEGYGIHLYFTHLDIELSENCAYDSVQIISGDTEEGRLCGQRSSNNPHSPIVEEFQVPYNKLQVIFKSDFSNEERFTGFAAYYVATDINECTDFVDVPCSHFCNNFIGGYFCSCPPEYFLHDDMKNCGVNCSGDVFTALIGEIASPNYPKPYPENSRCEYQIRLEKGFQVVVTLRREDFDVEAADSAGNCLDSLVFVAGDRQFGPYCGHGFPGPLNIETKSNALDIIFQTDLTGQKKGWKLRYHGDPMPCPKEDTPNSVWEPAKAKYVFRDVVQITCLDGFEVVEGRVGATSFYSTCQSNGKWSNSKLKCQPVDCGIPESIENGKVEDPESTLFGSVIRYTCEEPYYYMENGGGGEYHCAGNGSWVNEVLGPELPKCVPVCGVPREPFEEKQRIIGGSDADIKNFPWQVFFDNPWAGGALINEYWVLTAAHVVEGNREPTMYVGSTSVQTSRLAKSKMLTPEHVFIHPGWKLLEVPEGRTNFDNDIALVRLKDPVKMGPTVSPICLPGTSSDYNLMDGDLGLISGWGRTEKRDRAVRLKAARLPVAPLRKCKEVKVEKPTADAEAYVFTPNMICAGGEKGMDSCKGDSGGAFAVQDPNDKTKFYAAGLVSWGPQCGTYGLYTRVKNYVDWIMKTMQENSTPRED
T1 sequence (P00736 18-705 partner): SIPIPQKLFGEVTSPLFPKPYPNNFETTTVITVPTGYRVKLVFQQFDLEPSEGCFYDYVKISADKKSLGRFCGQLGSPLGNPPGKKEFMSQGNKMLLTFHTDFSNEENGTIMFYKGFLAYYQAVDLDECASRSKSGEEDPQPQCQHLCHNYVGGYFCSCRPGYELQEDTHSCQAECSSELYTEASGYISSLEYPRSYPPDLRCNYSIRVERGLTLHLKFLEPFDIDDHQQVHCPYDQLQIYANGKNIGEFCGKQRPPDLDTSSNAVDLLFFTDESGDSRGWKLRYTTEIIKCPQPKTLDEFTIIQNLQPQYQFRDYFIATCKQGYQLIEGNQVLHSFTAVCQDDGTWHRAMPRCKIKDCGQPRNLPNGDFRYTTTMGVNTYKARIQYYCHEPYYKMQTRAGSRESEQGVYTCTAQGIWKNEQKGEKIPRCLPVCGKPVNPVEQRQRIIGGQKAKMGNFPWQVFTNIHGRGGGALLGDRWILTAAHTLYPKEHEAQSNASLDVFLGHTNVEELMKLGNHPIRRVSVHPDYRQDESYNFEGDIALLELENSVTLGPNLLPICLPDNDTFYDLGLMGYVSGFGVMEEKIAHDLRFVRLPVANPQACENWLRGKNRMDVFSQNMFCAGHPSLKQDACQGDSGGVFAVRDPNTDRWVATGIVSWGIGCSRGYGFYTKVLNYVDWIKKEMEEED
T1 sequence (P02745 23-245 partner): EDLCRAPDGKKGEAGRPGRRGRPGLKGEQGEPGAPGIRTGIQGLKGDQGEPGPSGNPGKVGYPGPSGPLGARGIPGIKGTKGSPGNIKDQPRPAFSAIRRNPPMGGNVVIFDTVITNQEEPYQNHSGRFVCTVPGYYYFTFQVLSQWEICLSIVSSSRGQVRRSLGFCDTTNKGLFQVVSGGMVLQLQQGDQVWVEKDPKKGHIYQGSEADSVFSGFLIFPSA
T1 sequence (P02746 28-253 partner): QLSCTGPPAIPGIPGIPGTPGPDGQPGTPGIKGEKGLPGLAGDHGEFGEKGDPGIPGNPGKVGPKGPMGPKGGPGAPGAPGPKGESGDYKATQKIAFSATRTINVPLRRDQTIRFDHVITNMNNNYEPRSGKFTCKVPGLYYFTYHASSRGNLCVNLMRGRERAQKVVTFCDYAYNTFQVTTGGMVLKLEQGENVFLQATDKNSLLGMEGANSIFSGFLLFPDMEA
T1 sequence (P02747 29-245 partner): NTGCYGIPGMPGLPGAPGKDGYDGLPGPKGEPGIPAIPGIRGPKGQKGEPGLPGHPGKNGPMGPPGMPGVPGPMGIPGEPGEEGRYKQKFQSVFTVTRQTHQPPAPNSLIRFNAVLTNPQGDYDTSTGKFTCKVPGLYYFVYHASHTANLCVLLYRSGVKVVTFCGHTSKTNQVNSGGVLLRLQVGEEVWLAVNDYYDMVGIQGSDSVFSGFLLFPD

In the case of `O=C([O-])c1cc(NS(=O)(=O)c2cc(S(=O)(=O)Nc3cc(C(=O)[O-])cc(C(=O)[O-])c3)c3cc(S(=O)(=O)Nc4cc(C(=O)[O-])cc(C(=O)[O-])c4)cc(S(=O)(=O)Nc4cc(C(=O)[O-])cc(C(=O)[O-])c4)c3c2)cc(C(=O)[O-])c1.[Na+].[Na+].[Na+].[Na+].[Na+].[Na+].[Na+].[Na+]` [5,5',5",5"'-[1,3,5,7-Naphthalenetetrayltetrakis(sulfonylimino)]tetraisophthalic acid, octasodium salt], the “C-Late 035* Wells” value in assay [1] came out at 2 Wells. Further, in the assay with shunt pathway, the “C-Shunt Inhibition 036* Wells” value came out at 6 Wells. Besides, the “Cl 026* Wells” value on activated human C1 turned out to be 7 Wells. Moreover, in the assay with complement activity, the “In vivo Activity (Guinea Pigs) % Inhibition Intraperitoneal, 30 minutes” value came out at 66%; the “In vivo Activity (Guinea Pigs) % Inhibition Intraperitoneal, 60 minutes” value was determined as 71%; the “In vivo Activity (Guinea Pigs) % Inhibition Intraperitoneal, 120 minutes” value is recorded as 76%.
Regarding `O=C(O)c1cc(NS(=O)(=O)c2cc(S(=O)(=O)Nc3cc(C(=O)O)c(C(=O)O)c(C(=O)O)c3)c3cc(S(=O)(=O)Nc4cc(C(=O)O)c(C(=O)O)c(C(=O)O)c4)cc(S(=O)(=O)Nc4cc(C(=O)O)c(C(=O)O)c(C(=O)O)c4)c3c2)cc(C(=O)O)c1C(=O)O` [5,5',5",5'"-[1,3,5,7-Naphthalenetetrayltetrakis(sulfonylimino)]tetra-1,2,3-benzenetricarboxylic acid, dodecasodium salt], the “C-Late 035* Wells” value in assay [1] was 5 Wells. Also, the “C-Shunt Inhibition 036* Wells” value with shunt pathway was determined as 5 Wells. Also, on activated human C1, the “Cl 026* Wells” value was 8 Wells. Also, in the assay with complement activity, the “In vivo Activity (Guinea Pigs) % Inhibition Intraperitoneal, 30 minutes” value stood at 80%; the “In vivo Activity (Guinea Pigs) % Inhibition Intraperitoneal, 60 minutes” value was 77%; the “In vivo Activity (Guinea Pigs) % Inhibition Intraperitoneal, 120 minutes” value is recorded as 85%.

Values taken from patent publication US4369191A, “Naphthalenetetrayltetrakis(sulfonylimino)-tetrabenzene di- and tricarboxylic acids” (American Cyanamid Company, priority 1981, dated 1983).
